The source of these data is US20180200275A1, “METHOD AND THE USE TO IMPROVE ORAL ABSORPTION OF NICOTINAMIDE AND NICOTINAMIDE RIBOSIDE” (Better Standing Company Inc., priority 2017, published 2018).

A short description of data set [1]: effects noted by a person (the inventor) after oral consumption. It is filed as in vivo, human. The following applies: 50 mg nicotinamide or 125 mg N-Ribosylnicotinamide chloride with water only, one person.
For data set [2] the following is noted: cited from earlier work.

With `NC(=O)c1cccnc1` [nicotinamide, 3-pyridinecarboxamide], the “effects of consuming shortly before bed with water only” value in data set [1] is listed as “no discernible effects”. Further, in data set [2], the “pKa of the pyridine ring nitrogen atom” value is reported as 4.14.
